Results from paper PMC4160109 (Clinical cancer research : an official journal of the …, 2014).

Legend:
advanced solid tumors = details: cited from earlier work
patients = details: cited from earlier work
[1] = Plasma PK of oral rigosertib in phase I patients; type: in vivo, human; details: for CI7F: plasma, mean ± SD
[2] = Urine PK of oral rigosertib in phase I patients; type: in vivo, human
[3] = tested on: advanced solid malignancies; assay: Phase I antitumor activity; type: in vivo, human; details: for median time on study: all patients
dogs = assay: Preclinical severely toxic dose in 10% of animals, dogs; type: in vivo, dog
rats = assay: Preclinical severely toxic dose in 10% of animals, rats; type: in vivo, rat; details: twice daily
[4] = tested on: patients with advanced solid malignancies; details: in vivo

CC[C@@H]1C(=O)N(C)c2cnc(Nc3ccc(C(=O)NC4CCN(C)CC4)cc3OC)nc2N1C1CCCC1 [BI-2536]
phase I CBR (advanced solid tumors): 32% | phase I PR (advanced solid tumors): 0% | phase I stable disease (advanced solid tumors): 32%

Nc1cc(C(F)(F)F)c(-c2cc(N3CCOCC3)nc(N3CCOCC3)n2)cn1 [BKM120]
phase I RR (advanced solid tumors): 2.8%

C=CCN(/C=C1/C(=O)O[C@H](COC)[C@@]2(C)C1=C(O)C(=O)C1=C2[C@H](OC(C)=O)C[C@]2(C)C(=O)CC[C@@H]12)CC=C [PX-866]
phase I RR (advanced solid tumors): 0% | hyperglycemia (patients): do not cause hyperglycemia

COc1ccc(Cl)c(Nc2nc3ccccc3nc2NS(=O)(=O)c2cccc(NC(=O)C(C)(C)N)c2)c1 [XL147]
hyperglycemia (patients): do not cause hyperglycemia

COc1cc(OC)c(/C=C/S(=O)(=O)Cc2ccc(OC)c(NCC(=O)O)c2)c(OC)c1 [rigosertib, sodium (E)-2-{2-methoxy-5-[(2′,4′ ,6′-trimethoxys-tyrylsulfonyl)methyl]phenylamino}acetate]
plasma pharmacokinetics, dose dependence ([1]; oral 70-700 mg twice daily): linear and dose proportional | CI7F ([1]; 70 mg twice daily oral, Day 1 cycle 1, n = 3): 71.54 ±42.87 I7h | CI7F ([1]; 140 mg twice daily oral, Day 1 cycle 1, n = 4): 171.29 ± 155.74 I7h | CI7F ([1]; 140 mg twice daily oral, Day 21 cycle 1, n = 4): 55.64 ± 36.62 I7h | CI7F ([1]; 280 mg twice daily oral, Day 1 cycle 1, n = 5): 122.84 ± 123.67 I7h | CI7F ([1]; 280 mg twice daily oral, Day 21 cycle 1, n = 3): 127.45 ±66.13 I7h | CI7F ([1]; 560 mg twice daily oral, Day 1 cycle 1, n = 32): 93.28 ± 58.24 I7h | CI7F ([1]; 560 mg twice daily oral, Day 21 cycle 1, n = 24): 116.33 ±56.32 I7h | CI7F ([1]; 700 mg twice daily oral, Day 1 cycle 1, n = 7): 64.62 ± 34.70 I7h | CI7F ([1]; 700 mg twice daily oral, Day 21 cycle 1, n = 2): 149.9 ±51.79 I7h | 24-hour urine excretion ([2]; nonsymptomatic patients, mean (SD 2.8)): 18.7 mg | 24-hour urine excretion ([2]; patients with urinary symptoms, mean (SD 7.9)): 16.6 mg | overall response rate (RR) ([3]; 2/46 evaluable patients, all dose levels): 4.3% | duration of stable disease ([3]; 8 patients with stable disease for 12 or more weeks, range): 12–36 weeks | clinical benefit rate (CBR = CR + PR + stable disease) ([3]; 10/46 evaluable patients, stable disease ≥ 12 weeks): 21.7% | patients with stable disease for ≥ 12 weeks ([3]; all dose levels): 8 | median time on study [3]: 2 cycles | median time on study ([3]; range, 1–101+): 6 weeks | best response ([3]; one patient, platinum-refractory HPV-positive HNSCC, 560 mg twice daily): partial response | time on study ([3]; patient with CR, HPV-negative HNSCC, 280 mg twice daily): ≥ 101 weeks | time on study ([3]; patient with PR, HPV-positive HNSCC, 560 mg twice daily): 50 weeks | tumor size decrease from its maximum ([3]; patient with PR, HPV-positive HNSCC, 560 mg twice daily, cycle 5): 40% | human equivalent of severely toxic dose in 10% of dogs and rats (dogs; 60 kg human): 12.2 mg/kg | human equivalent of severely toxic dose in 10% of dogs and rats (dogs; 60 kg human with a safety factor of 10): 73 mg | severely toxic dose in 10% of animals (dogs; dogs, twice daily): 75 mg/kg | severely toxic dose in 10% of animals (rats): 75 mg/kg | Fatigue, treatment-related AE (patients) ([4]; human): 1 | Hematuria, treatment-related AE (patients) ([4]; human): 2 | Pelvic pain, treatment-related AE (patients) ([4]; human): 1 | median time to onset of urinary symptoms ([4]; human): 4 weeks | patients experiencing serious AEs ([4]; human): 13 | patients with doses held for toxicity ([4]; human): 14 | patients with doses reduced for toxicity ([4]; human): 13 | patients with grade 2 or 3 urinary symptoms ([4]; human): 15 | patients with serious AE considered possibly drug-related ([4]; human): 1 | time to resolution of urinary symptoms after drug discontinuation ([4]; human): ≤ 14 days | Patients with a DLT ([4]; human, 21 days): 2 | patients with a DLT ([4]; human, 21 days): 1 | recommended phase II dose (RP2D) ([4]; human, po, 21 days): 560 mg | patients with grade 3 nonhematologic toxicity [4]: Seven | tolerability of dose level [4]: considered intolerable | Dose-limiting toxicities ([4]; po): hematuria and dysuria
